22 molecules from patent publication US20250109135A1, “NOVEL ISOINDOLINONE DERIVATIVE COMPOUNDS AS CASPASE INHIBITORS” (INNOVO THERAPEUTICS INC., priority 2022, published 2025) can be followed below.

In experiment [1] the test system is Secreted IL-1β in THP-1 cells. The experiment is described as follows: Interleukin-1β inhibitory activity in human monocytic cells THP-1 (ELISA). In kind it is cell-based. The note with it: compound 100 nM, PMA-differentiated THP-1, LPS 10 μg/ml then 5 mM ATP, 24 h. Here is the method:
Caspase-1 is known as […] (ICE). Activated Caspase-1 is involved in the cleavage of pro-form IL-1β to produce the mature form, which is then secreted to induce inflammation. Therefore, the compounds identified in Experimental example 1 were tested to determine if their Caspase-1 inhibitory activity affected the production of […].
THP-1 (ATCC) cells were cultured in RPMI 1640 (Hyclone) growth medium comprising 10% Fetal bovine serum (FBS, Gibco) and antibiotics (100 U/ml Penicillin, 0.1 mg/ml Streptomycin, Cytiva) under 37° C., 5% CO2 conditions. Cultured THP-1 cells were seeded in growth medium to a concentration of 3×10^5 cells/well in 24-well plates (Celvest) and then treated with 1 μM Phorbol 12-myristate 13-acetate (PMA) (Sigma) for 24 hours to induce differentiation. Differentiated THP-1 were pre treated with 10 μg/ml Lipopolysaccharide (LPS, from E. coli 0111:B4 (InvivoGen)) in serum free RPMI 1640 medium for 24 hours to induce an inflammatory response. After removal of LPS, the compounds were pretreated for 1 h at a concentration of 100 nM using the same medium, followed by the addition of 5 mM ATP (InvivoGen) and incubation for 24 h in an incubator. The treated medium was collected and centrifuged, and IL-1β was quantified using an Enzyme linked immunoassay kit (ELISA kit, R&D system), and absorbance was measured at 450 nm using a CLARIOstar Plus spectrometer. Inhibitory activity was denoted as a if it was 50% or more, b if it was 30% or more but less than 50%, c if it was 10% or more but less than 30%, and d if it was less than 10%.

In experiment [2] the target is T1, recombinant human Caspase-1 (Homo sapiens, UniProt P29466).
T1 construct: purchased Enzo life science
T1 sequence (P29466 120-297 limits assumed): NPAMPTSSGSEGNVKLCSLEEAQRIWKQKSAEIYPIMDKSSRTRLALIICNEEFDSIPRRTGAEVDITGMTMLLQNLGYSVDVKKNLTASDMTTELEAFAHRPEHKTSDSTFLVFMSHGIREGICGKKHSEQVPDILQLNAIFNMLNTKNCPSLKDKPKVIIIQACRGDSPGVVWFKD
T1 sequence (P29466 317-404 limits assumed): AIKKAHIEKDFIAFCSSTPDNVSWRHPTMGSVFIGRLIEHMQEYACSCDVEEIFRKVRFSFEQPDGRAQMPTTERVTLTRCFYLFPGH
The experiment in a line: Caspase-1 inhibitory activity, fluorescent substrate Ac-YVAD-AFC. In kind it is biochemical. The procedure: To determine the Caspase-1 inhibitory activity of the compounds of the present invention prepared in Example, Caspase-1 activity was measured using a substrate with a fluorescent dye attached to it. […] The compound was dissolved in DMSO and stored at −20° C. Enzymatic reactions were carried out in a buffer comprising 50 mM HEPES (pH 8.0), 50 mM KCl, 200 mM NaCl, 10 mM DTT, 0.1% CHAPS (w/v). Enzyme inactivation was measured in the presence of different concentrations of the compound using the fluorescent substrate N-Acetyl-Tyr-Val-Ala-Asp-7-amido-4-trifluoromethylcoumarin (Ac-YVAD-AFC) (Sigma) at a concentration of 50 μM and 1 unit of recombinant human Caspase-1 (Enzo life science). A CLARIOstar Plus spectrometer (BMG Labtech) was used to measure the reaction rate as a function of time in the 400/505 nm (Ex/Em) wavelength band. […] If kobs/[I] is 20 or more, it is denoted as A, if it is 10 or more but less than 20, it is denoted as B, if it is 1 or more but less than 10, it is denoted as C, and if it is less than 1, it is denoted as D.
In the above equation, At means the enzyme reaction rate at time t (min), and Amax means the maximum reaction rate.

[3] abbreviates: pH 8, 1 unit recombinant human Caspase-1, 50 μM Ac-YVAD-AFC, read-out: kobs/[I] Caspase-1.
The mark [4] stands for this setting: pH 8, read-out: kobs/[I] Caspase-1.

Where two headings read alike, the source gives them in different places.

Broadly, the inhibition is how much of the control response was suppressed. Higher therefore signals strong suppression. `CCC(C(=O)NC(CC(=O)O)C(=O)CF)N1Cc2ccc(-c3ccc(C(F)(F)F)nc3)cc2C1=O` (stereo not shown) [Compound 20, 5-fluoro-4-oxo-3-(2-(1-oxo-6-(6-(trifluoromethyl)pyridin-3-yl)isoindolin-2-yl)butanamido)pentanoic acid] registered an inhibition at 0.1 µM in experiment [1] of 10 to 30%. Moreover, in experiment [2] (setting [3]), the kinact/KI was 0.0167 to 0.167 M⁻¹ s⁻¹.
`CCC(C(=O)NC(CC(=O)O)C(=O)CF)N1Cc2ccc(-c3ccc(C(F)(F)F)cc3)cc2C1=O` (stereo not shown) [Compound 14, 5-fluoro-4-oxo-3-(2-(1-oxo-6-(4-(trifluoromethyl)phenyl)isoindolin-2-yl)butanamido)pentanoic acid] showed an inhibition at 0.1 µM in experiment [1] below 10%. Besides, the kinact/KI in experiment [2] (setting [3]) lay in the range of 0.0167 to 0.167 M⁻¹ s⁻¹.
As to `CCC(C(=O)NC(CC(=O)O)C(=O)CF)N1Cc2ccc(-c3cccc4ccncc34)cc2C1=O` (stereo not shown) [Compound 35, 5-fluoro-3-(2-(6-(isoquinolin-8-yl)-1-oxoisoindolin-2-yl)butanamido)-4-oxopentanoic acid], the inhibition at 0.1 µM in experiment [1] is below 10%. Also, the kinact/KI in experiment [2] (setting [4]) is 0.0167 to 0.167 M⁻¹ s⁻¹.
For `CCC(C(=O)NC(CC(=O)O)C(=O)CF)N1Cc2ccc(-c3ccsc3)cc2C1=O` (stereo not shown) [Compound 28, 5-fluoro-4-oxo-3-(2-(1-oxo-6-(thiophen-3-yl)isoindolin-2-yl)butanamido)pentanoic acid], in experiment [1], the inhibition at 0.1 µM was in the range of 10 to 30%. In addition, the kinact/KI in experiment [2] (setting [3]) fell in the range of 0.0167 to 0.167 M⁻¹ s⁻¹.
For the molecule `CCC(C(=O)NC(CC(=O)O)C(=O)CF)N1Cc2ccc(C3=CCN(S(C)(=O)=O)CC3)cc2C1=O` (stereo not shown) [Compound 7, 5-fluoro-3-(2-(6-(1-(methylsulfonyl)-1,2,3,6-tetrahydropyridin-4-yl)-1-oxoisoindolin-2-yl)butanamido)-4-oxopentanoic acid], the inhibition at 0.1 µM in experiment [1] was below 10%. The kinact/KI in experiment [2] (setting [3]) is 0.0167 to 0.167 M⁻¹ s⁻¹.
Take `CC[C@@H](C(=O)NC(CC(=O)O)C(=O)CF)N1Cc2cc(N3CCn4cc(C(F)(F)F)nc4C3)ccc2C1=O` (stereo partly drawn) [Compound 62, 5-fluoro-4-oxo-3-((S)-2-(1-oxo-5-(2-(trifluoromethyl)-5,6-dihydroimidazo[1,2-a]pyrazin-7(8H)-yl)isoindolin-2-yl)butanamido)pentanoic acid]: the kinact/KI in experiment [2] (setting [4]) is below 0.0167 M⁻¹ s⁻¹.
For the molecule `CCC(C(=O)NC(CC(=O)O)C(=O)CF)N1Cc2ccc(N3CCN(c4nsc5ccccc45)CC3)cc2C1=O` (stereo not shown) [Compound 19, 3-(2-(6-(4-(benzo[d]isothiazol-3-yl)piperazin-1-yl)-1-oxoisoindolin-2-yl)butanamido)-5-fluoro-4-oxopentanoic acid], the inhibition at 0.1 µM in experiment [1] is below 10%. Further, in experiment [2] (setting [3]), the kinact/KI is below 0.0167 M⁻¹ s⁻¹.
In experiment [1], `CCC(C(=O)NC(CC(=O)O)C(=O)CF)N1Cc2ccc(-c3cnn4ccccc34)cc2C1=O` (stereo not shown) [Compound 33, 5-fluoro-4-oxo-3-(2-(1-oxo-6-(pyrazolo[1,5-a]pyridin-3-yl)isoindolin-2-yl)butanamido)pentanoic acid] showed an inhibition at 0.1 µM below 10%. Also, in experiment [2] (setting [3]), the kinact/KI lay within 0.0167 to 0.167 M⁻¹ s⁻¹.
For `C[C@@H](C(=O)NC(CC(=O)O)C(=O)CF)N1Cc2ccc(N3CCCC3)cc2C1=O` (stereo partly shown) [Compound 46, 5-fluoro-4-oxo-3-(2-(1-oxo-6-(pyrrolidin-1-yl)isoindolin-2-yl)propanamido)pentanoic acid], in experiment [2] (setting [4]), the kinact/KI was below 0.0167 M⁻¹ s⁻¹.
As to `CC[C@@H](C(=O)NC(CC(=O)O)C(=O)CF)N1Cc2cc(N3CCN(c4nsc5ccccc45)CC3)ccc2C1=O` (stereo partly drawn) [Compound 63, 3-((S)-2-(5-(4-(benzo[d]isothiazol-3-yl)piperazin-1-yl)-1-oxoisoindolin-2-yl)butanamido)-5-fluoro-4-oxopentanoic acid], the kinact/KI in experiment [2] (setting [4]) is below 0.0167 M⁻¹ s⁻¹.
`CCC(C(=O)NC(CC(=O)O)C(=O)CF)N1Cc2ccc(C3=CCOCC3)cc2C1=O` (stereo not shown) [Compound 15, 3-(2-(6-(3,6-dihydro-2H-pyran-4-yl)-1-oxoisoindolin-2-yl)butanamido)-5-fluoro-4-oxopentanoic acid] displayed an inhibition at 0.1 µM in experiment [1] below 10%. Moreover, the kinact/KI in experiment [2] (setting [3]) is below 0.0167 M⁻¹ s⁻¹.
For the molecule `C[C@@H](C(=O)NC(CC(=O)O)C(=O)CF)N1Cc2ccc(-c3coc4ccccc34)cc2C1=O` (stereo partly shown) [Compound 49, 3-(2-(6-(benzofuran-3-yl)-1-oxoisoindolin-2-yl)propanamido)-5-fluoro-4-oxopentanoic acid], the kinact/KI in experiment [2] (setting [3]) was in the range of 0.167 to 0.333 M⁻¹ s⁻¹.
For the molecule `CCC(C(=O)NC(CC(=O)O)C(=O)CF)N1Cc2ccc(-c3ccc(C(=O)O)cc3)cc2C1=O` (stereo not shown) [Compound 17, 4-(2-(1-((1-carboxy-4-fluoro-3-oxobutan-2-yl)amino)-1-oxobutan-2-yl)-3-oxoisoindolin-5-yl)benzoic acid], the inhibition at 0.1 µM in experiment [1] was in the range of 10 to 30%. The kinact/KI in experiment [2] (setting [3]) was 0.0167 to 0.167 M⁻¹ s⁻¹.
The like results for `CCC(C(=O)NC(CC(=O)O)C(=O)CF)N1Cc2ccc(-c3cccc4ncccc34)cc2C1=O` (stereo not shown) [Compound 34, 5-fluoro-4-oxo-3-(2-(1-oxo-6-(quinolin-5-yl)isoindolin-2-yl)butanamido)pentanoic acid] were, in that order, below 10% and 0.0167 to 0.167 M⁻¹ s⁻¹.
In experiment [1], `CCC(C(=O)NC(CC(=O)O)C(=O)CF)N1Cc2ccc(-c3ccnc(N)c3)cc2C1=O` (stereo not shown) [Compound 23, 3-(2-(6-(2-aminopyridin-4-yl)-1-oxoisoindolin-2-yl)butanamido)-5-fluoro-4-oxopentanoic acid] registered an inhibition at 0.1 µM below 10%. In addition, the kinact/KI in experiment [2] (setting [3]) was 0.0167 to 0.167 M⁻¹ s⁻¹.
The molecule `CCC(C(=O)NC(CC(=O)O)C(=O)CF)N1Cc2ccc(-c3ccnc4ccccc34)cc2C1=O` (stereo not shown) [Compound 31, 5-fluoro-4-oxo-3-(2-(1-oxo-6-(quinolin-4-yl)isoindolin-2-yl)butanamido)pentanoic acid] returned an inhibition at 0.1 µM in experiment [1] below 10%. The kinact/KI in experiment [2] (setting [3]) was 0.0167 to 0.167 M⁻¹ s⁻¹.
As to `CC[C@@H](C(=O)N[C@@H](CC(=O)O)C(=O)COc1c(F)c(F)cc(F)c1F)N1Cc2ccc(N3CCCC3)cc2C1=O` [Compound 53, (S)-4-oxo-3-((S)-2-(1-oxo-6-(pyrrolidin-1-yl)isoindolin-2-yl)butanamido)-5-(2,3,5,6-tetrafluorophenoxy)pentanoic acid], the inhibition at 0.1 µM in experiment [1] is below 10%. Further, the kinact/KI in experiment [2] (setting [4]) was 0.0167 to 0.167 M⁻¹ s⁻¹.
The like results for `CC[C@@H](C(=O)NC(CC(=O)O)C(=O)CF)N1Cc2cc(-c3ccc4occc4c3)ccc2C1=O` (stereo partly drawn) [Compound 60, 3-((S)-2-(5-(benzofuran-5-yl)-1-oxoisoindolin-2-yl)butanamido)-5-fluoro-4-oxopentanoic acid] were, in that order, below 10% and below 0.0167 M⁻¹ s⁻¹.
For the molecule `CC[C@@H](C(=O)NC(CC(=O)O)C(=O)CF)N1Cc2cc(-c3csc4ccccc34)ccc2C1=O` (stereo partly drawn) [Compound 59, 3-((S)-2-(5-(benzo[b]thiophen-3-yl)-1-oxoisoindolin-2-yl)butanamido)-5-fluoro-4-oxopentanoic acid], the inhibition at 0.1 µM in experiment [1] was below 10%. The kinact/KI in experiment [2] (setting [4]) is below 0.0167 M⁻¹ s⁻¹.
On to `CC[C@@H](C(=O)NC(CC(=O)O)C(=O)CF)N1Cc2cc(N3CCCC3)ccc2C1=O` (stereo partly drawn) [Compound 64, 5-fluoro-4-oxo-3-((S)-2-(1-oxo-5-(pyrrolidin-1-yl)isoindolin-2-yl)butanamido)pentanoic acid], for which, in experiment [2] (setting [4]), the kinact/KI was below 0.0167 M⁻¹ s⁻¹.
In the case of `C[C@@H](C(=O)NC(CC(=O)O)C(=O)CF)N1Cc2ccc(-c3ccc4c(c3)OCCO4)cc2C1=O` (stereo partly shown) [Compound 48, 3-(2-(6-(2,3-dihydrobenzo[b][1,4]dioxin-6-yl)-1-oxoisoindolin-2-yl)propanamido)-5-fluoro-4-oxopentanoic acid], the kinact/KI in experiment [2] (setting [3]) is below 0.0167 M⁻¹ s⁻¹.
Take `C[C@@H](C(=O)NC(CC(=O)O)C(=O)CF)N1Cc2ccc(-c3ccc4[nH]c(=O)[nH]c4c3)cc2C1=O` (stereo partly shown) [Compound 47, 5-fluoro-4-oxo-3-(2-(1-oxo-6-(2-oxo-2,3-dihydro-1H-benzo[d]imidazol-5-yl)isoindolin-2-yl)propanamido)pentanoic acid]: the kinact/KI in experiment [2] (setting [4]) lay in the range of 0.0167 to 0.167 M⁻¹ s⁻¹.
